In publication PMC11062899, “De novo development of small cyclic peptides that are orally bioavailable” (Nature Chemical Biology, 2023):
Where “and” joins values, the source holds several entries; their conditions need not be identical. Identical values can stand only once. Blank lines part the entries; values can stand above or below the compound they belong to.

Tests used:
[1] = Measurement of in vivo gastrointestinal stability in rats; design: species or system rat; conditions: for Concentration in organ extract: rat n = 1, 30 min after p.o. 10 mg kg^−1
Protocol: Peptide 43 was dissolved in 10% Cremophor EL and 5% DMSO in water at a concentration of 1 mg ml^−1 and administrated by oral gavage to a rat at a dose of 10 mg kg^−1. The rat was killed 30 min after the administration using a CO2 chamber followed by cervical dislocation. Stomach, small intestine (duodenum/jejunum and ileum were collected separately) and large intestine were removed and immediately frozen in pre-cooled containers on dry ice. Organs and their respective content were collected separately to facilitate homogenization and sample processing. The organs were homogenized using a mortar and pestle on dry ice and liquid nitrogen to avoid thawing of the samples. Peptides were extracted by addition of 2 ml of extraction buffer containing 50 mM Tris-HCl (pH 8.0), 150 mM NaCl, 5 mM EDTA, 0.01% Triton-X, 1 mM PMSF and protease inhibitor cocktail (Sigma-Aldrich, P8340) per gram of organ or organ content weight and sonicating the resulting suspension for 5 min. Samples were centrifuged at 16,000g for 10 min, and 40 μl of the resulting supernatant was mixed with 120 μl of a cold acetonitrile:water (9:1) solution containing an internal standard (5 μg ml^−1). Samples were analyzed and quantified by LC–MS as described above.

human α-thrombin = human α-thrombin (Homo sapiens, UniProt P00734); assay: Screen of 8,448-member cyclic peptide library against thrombin (crude reactions, 10 μM); assay type: biochemical; conditions: 10 μM crude peptide, slopes normalized to DMSO; for Residual thrombin activity: Replica: repeated acylation and screen
Protocol: The cyclic peptides were N-acylated with activated carboxylic acids as follows. Volumes of 25 nl of cyclic peptides and 25 nl of activated carboxylic acids were transferred in a combinatorial fashion to 384-well microplates (Greiner, 781076) using an Echo 650 acoustic liquid handler (Labcyte). Plates were centrifuged at 2,000g for 2 min and incubated at room temperature for 8 h. […] The reaction products were screened for thrombin inhibition as follows. […] Thrombin inhibition was determined by measuring the fluorescent gain over time. Fluorescence intensity was measured on a Tecan Infinite […] microplate reader for 30 min at 25 °C with a fluorescent readout every 3 min (excitation: 360 nm, emission: 465 nm). Protease inhibition was calculated by comparing the enzymatic activity to a control without cyclic peptide. page 48: Supplementary Tables Supplementary Table 1 […] Cyclic peptide high-throughput screen. Category Parameter Description Assay Type of assay In vitro Target Human α thrombin Primary measurement Proteolytic cleavage of fluorogenic substrate Key reagents […] (Bachem) Assay protocol Described in Materials section “Thrombin library synthesis and screening” Additional comments - […] Library composition Cyclic peptides Source Combinatorial synthesis. Described in Methods section “Thrombin library synthesis and screening” Additional comments - Screen Format 384 well microtiter plates (Greiner, 781076) Concentration(s) tested 10 µM Plate controls 20 wells DMSO, 4 wells human α thrombin inhibitor R-11-25-2 (DOI: 10.1039/d0sc01944e) Reagent/ compound dispensing system Echo 650 (Beckman Coulter), […]) Detection instrument and software Tecan Infinite […] microplate reader Assay validation/QC Z' score: 0.86 Correction factors - Normalization Percent fluorescent gain over time as compared to DMSO Additional comments - […] Additional assay(s) Resynthesis and retesting of 20 best hits in original assay Confirmation of hit purity and structure Compounds were resynthesized and verified analytically Additional comments - 47

thrombin = target: T1, thrombin (Homo sapiens, UniProt P00734); assay: Target specificity profiling: thrombin; assay type: biochemical; conditions: replicates R1-R3
T1 construct: […]; purchased Molecular Innovations
Protocol: (§1) The protease specificity was assessed by testing the inhibition of a series of trypsin-like serine proteases using fluorogenic or chromogenic substrates. Peptide dilutions ranging from 40 μM to 40 nM were prepared for all proteases except thrombin (1 μM to 1 nM). […]. The following fluorogenic substrates were used at a final concentration of 50 μM: Z-Gly-Gly-Arg-AMC (Bachem) for thrombin and trypsin; Z-Phe-Arg-AMC (Bachem) for plasma kallikrein; Boc-Phe-Ser-Arg-AMC (Bachem) for factor XIa; and Boc-Gln-Gly-Arg-AMC (Bachem) for factor XIIa. […]. Reactions were performed in a volume of 150 μl in 96-well plates. A volume of 50 μl of twofold dilutions of macrocycle in assay buffer was pipetted into the wells of the plates. A volume of 50 μl of protease in assay buffer was added to each well and incubated for 15 min. A volume of 50 μl of substrate in assay buffer containing 3% DMSO was added. Fluorescence intensity was measured for 30 min using an Infinite M200 Pro plate reader (Tecan; excitation at 368 nm, emission at 467 nm), with one measurement every minute. For APC protease, absorbance was measured at 405 nm using the same plate reader for a period of 30 min with one reading every minute. Reactions were performed at 25 °C. Data were analyzed by Excel (version 2016).

plasma kallikrein = target: T2, plasma kallikrein (Homo sapiens, UniProt P03952); assay: Target specificity profiling: plasma kallikrein; assay type: biochemical; conditions: replicates R1-R3
T2 construct: 0.25 nM plasma kallikrein (Innovative Research); purchased Innovative Research
Protocol: as §1

factor XIa = target: T3, factor XIa (Homo sapiens, UniProt P03951); assay: Target specificity profiling: factor XIa; assay type: biochemical; conditions: replicates R1-R3
T3 construct: 1 nM factor XIa (Innovative Research); purchased Innovative Research
Protocol: as §1

T3 sequence (P03951 388-625 limits assumed): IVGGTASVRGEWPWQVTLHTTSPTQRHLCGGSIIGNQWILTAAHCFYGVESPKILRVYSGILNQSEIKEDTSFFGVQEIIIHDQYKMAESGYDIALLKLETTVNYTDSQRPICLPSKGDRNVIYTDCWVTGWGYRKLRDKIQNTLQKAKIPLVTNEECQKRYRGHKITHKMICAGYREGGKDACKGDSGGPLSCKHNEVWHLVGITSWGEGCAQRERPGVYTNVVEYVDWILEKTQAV
T3 sequence (P03951 19-387 partner limits assumed): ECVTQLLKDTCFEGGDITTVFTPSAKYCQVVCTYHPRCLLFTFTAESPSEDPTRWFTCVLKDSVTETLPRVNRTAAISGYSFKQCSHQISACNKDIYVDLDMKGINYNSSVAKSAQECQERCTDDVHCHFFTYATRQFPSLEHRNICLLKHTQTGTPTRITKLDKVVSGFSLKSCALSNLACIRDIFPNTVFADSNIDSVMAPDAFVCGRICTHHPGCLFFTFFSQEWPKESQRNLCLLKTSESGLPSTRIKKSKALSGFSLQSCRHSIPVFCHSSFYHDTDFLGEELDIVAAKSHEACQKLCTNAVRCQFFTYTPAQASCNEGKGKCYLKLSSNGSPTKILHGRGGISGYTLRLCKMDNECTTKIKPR
T2 sequence (P03952 391-638 limits assumed): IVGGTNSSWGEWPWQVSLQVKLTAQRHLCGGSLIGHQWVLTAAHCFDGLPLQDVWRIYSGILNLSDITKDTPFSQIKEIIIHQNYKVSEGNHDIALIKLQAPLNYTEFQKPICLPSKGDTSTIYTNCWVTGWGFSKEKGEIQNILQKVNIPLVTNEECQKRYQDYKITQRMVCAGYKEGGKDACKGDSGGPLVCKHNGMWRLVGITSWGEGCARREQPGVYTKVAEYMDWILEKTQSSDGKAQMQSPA
T2 sequence (P03952 20-390 partner limits assumed): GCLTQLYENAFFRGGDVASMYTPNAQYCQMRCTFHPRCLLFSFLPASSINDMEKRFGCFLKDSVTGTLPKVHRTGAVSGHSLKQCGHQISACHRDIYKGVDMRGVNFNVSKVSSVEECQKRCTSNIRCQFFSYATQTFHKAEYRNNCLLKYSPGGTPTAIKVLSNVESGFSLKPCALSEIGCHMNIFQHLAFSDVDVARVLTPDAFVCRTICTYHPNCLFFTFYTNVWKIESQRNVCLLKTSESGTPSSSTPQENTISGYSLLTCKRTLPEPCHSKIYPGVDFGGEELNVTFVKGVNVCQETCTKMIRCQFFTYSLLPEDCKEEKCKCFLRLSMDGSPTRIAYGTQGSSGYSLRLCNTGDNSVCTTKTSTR

Concentration in organ extract ([1]; Large intestine - content): 656 nM
Concentration in organ extract ([1]; Large intestine): 500 nM
Concentration in organ extract ([1]; Lower small instestine - content): 2900 nM
Concentration in organ extract ([1]; Lower small instestine): 600 nM
Concentration in organ extract ([1]; Stomach - content): 87600 nM
Concentration in organ extract ([1]; Stomach): 31600 nM
Concentration in organ extract ([1]; Upper small instestine - content): 13100 nM
Concentration in organ extract ([1]; Upper small instestine): 2600 nM
Compound: O=C1C[C@H]2CCCN2C(=O)[C@H](Cc2ccccc2)NC(=O)[C@@H](NC(=O)c2ccc(Cl)s2)CCC=CCCCCN1 [peptide 43]
in vivo gastrointestinal stability ([1]; rats, 10 mg kg^−1 p.o., 30 min, stomach, small and large intestine): large fraction of the peptide fully intact

Residual thrombin activity: Screen (human α-thrombin): 29.3
Residual thrombin activity: Replica (human α-thrombin): 33.0
Compound: CN1CCC(=O)NCCSCCS(=O)(=O)CCSC[C@H](NC(=O)c2ccc(Cl)s2)C(=O)N[C@@H](Cc2ccccc2)C1=O [compound 14]

Residual thrombin activity: Screen (human α-thrombin): 3.1
Residual thrombin activity: Replica (human α-thrombin): 1.5
Compound: O=C1C[C@H]2CCCN2C(=O)[C@H](Cc2ccccc2)NC(=O)[C@@H](NC(=O)c2ccc(Cl)s2)CSCCS(=O)(=O)CCSCCN1 [peptide 11]

Residual protease activity, Thrombin (human) (thrombin; inhibitor 1.00E+03 nM): 3.9 and 4.0 and 3.8
Residual protease activity, Thrombin (human) (thrombin; inhibitor 1.25E+02 nM): 27.0 and 25.5 (2×)
Residual protease activity, Thrombin (human) (thrombin; inhibitor 1.56E+01 nM): 75.5 and 73.3 and 73.1
Residual protease activity, Thrombin (human) (thrombin; inhibitor 1.95E+00 nM): 95.2 and 97.7 and 95.3
Residual protease activity, Thrombin (human) (thrombin; inhibitor 2.50E+02 nM): 15.1 and 14.2 and 14.6
Residual protease activity, Thrombin (human) (thrombin; inhibitor 3.12E+01 nM): 59.3 and 58.1 and 56.4
Residual protease activity, Thrombin (human) (thrombin; inhibitor 3.91E+00 nM): 91.5 and 93.3 and 91.3
Residual protease activity, Thrombin (human) (thrombin; inhibitor 5.00E+02 nM): 7.6 and 7.4 (2×)
Residual protease activity, Thrombin (human) (thrombin; inhibitor 6.25E+01 nM): 44.1 and 42.5 and 42.8
Residual protease activity, Thrombin (human) (thrombin; inhibitor 7.81E+00 nM): 89.2 and 86.5 and 77.1
Residual protease activity, Thrombin (human) (thrombin; inhibitor 9.77E-01 nM): 99.8 and 102.7 and 98.9
Residual protease activity, Plasma kallikrein (plasma kallikrein; inhibitor 1.00E+04 nM): 100.3 and 97.1 and 98.3
Residual protease activity, Plasma kallikrein (plasma kallikrein; inhibitor 1.25E+03 nM): 101.3 and 99.9 and 96.3
Residual protease activity, Plasma kallikrein (plasma kallikrein; inhibitor 1.56E+02 nM): 96.4 and 108.1 and 104.0
Residual protease activity, Plasma kallikrein (plasma kallikrein; inhibitor 2.00E+04 nM): 101.2 and 98.7 and 98.9
Residual protease activity, Plasma kallikrein (plasma kallikrein; inhibitor 2.50E+03 nM): 103.4 and 100.4 and 99.0
Residual protease activity, Plasma kallikrein (plasma kallikrein; inhibitor 3.12E+02 nM): 102.1 and 105.6 and 105.7
Residual protease activity, Plasma kallikrein (plasma kallikrein; inhibitor 3.91E+01 nM): 104.4 and 99.7 and 94.4
Residual protease activity, Plasma kallikrein (plasma kallikrein; inhibitor 4.00E+04 nM): 101.1 and 97.0 and 98.9
Residual protease activity, Plasma kallikrein (plasma kallikrein; inhibitor 5.00E+03 nM): 98.7 and 96.4 and 96.9
Residual protease activity, Plasma kallikrein (plasma kallikrein; inhibitor 6.25E+02 nM): 106.1 and 103.7 and 102.1
Residual protease activity, Plasma kallikrein (plasma kallikrein; inhibitor 7.81E+01 nM): 103.2 and 99.7 and 96.6
Residual protease activity, Factor Xia (factor XIa; inhibitor 1.00E+04 nM): 95.7 and 95.4 and 95.1
Residual protease activity, Factor Xia (factor XIa; inhibitor 1.25E+03 nM): 96.1 and 95.1 and 96.0
Residual protease activity, Factor Xia (factor XIa; inhibitor 1.56E+02 nM): 107.0 and 105.2 and 107.6
Residual protease activity, Factor Xia (factor XIa; inhibitor 2.00E+04 nM): 93.9 and 90.3 and 94.5
Residual protease activity, Factor Xia (factor XIa; inhibitor 2.50E+03 nM): 100.7 and 100.4 and 101.9
Residual protease activity, Factor Xia (factor XIa; inhibitor 3.12E+02 nM): 89.3 and 92.0 and 107.2
Residual protease activity, Factor Xia (factor XIa; inhibitor 3.91E+01 nM): 99.1 and 100.7 and 101.5
Residual protease activity, Factor Xia (factor XIa; inhibitor 4.00E+04 nM): 101.0 and 99.6 and 99.1
Residual protease activity, Factor Xia (factor XIa; inhibitor 5.00E+03 nM): 104.3 and 104.7 and 110.9
Residual protease activity, Factor Xia (factor XIa; inhibitor 6.25E+02 nM): 94.0 and 96.1 and 97.6
Residual protease activity, Factor Xia (factor XIa; inhibitor 7.81E+01 nM): 100.7 and 100.8 and 101.1
Compound: O=C1C[C@H]2CCCN2C(=O)[C@H](Cc2ccccc2)NC(=O)[C@@H](NC(=O)c2ccc(Cl)cc2)CCC=CCCCCN1 (mixture of isomers) [peptide 46]
